Experimental data published in patent publication US20260199468A1, “COMPOSITIONS AND METHODS FOR TREATING CANCER USING CELL THERAPIES” (Orca Biosystems, Inc., priority 2023, published 2026).

How the values were obtained:
[1] = system: CAR T cells; experiment: In vitro CAR T cell proliferation with tacrolimus; assay type: cell-based; settings: higher concentrations of tacrolimus; in the presence or absence of tumor
Procedure: (§1) CAR T cells used in the clinical study described in Example 1 were assessed according to standard in vitro methods; CD19 CAR expression was assessed (FIG. 2); CAR T cell cytotoxicity was assessed (FIG. 3); CD3 T cell proliferation was assessed (FIG. 4); and CAR T cell proliferation was assessed (FIG. 4).

[2] = healthy subjects, oral administration; cited from earlier work
[3] = system: CAR T cells; experiment: In vitro CAR T cell cytotoxicity with tacrolimus; assay type: cell-based; settings: higher concentrations of tacrolimus, FIGS. 2-5
Procedure: as §1

For `C=CC[C@@H]1/C=C(\C)C[C@H](C)C[C@H](OC)[C@H]2O[C@@](O)(C(=O)C(=O)N3CCCC[C@H]3C(=O)O[C@H](/C(C)=C/[C@@H]3CC[C@@H](O)[C@H](OC)C3)[C@H](C)[C@@H](O)CC1=O)[C@H](C)C[C@@H]2OC` [tacrolimus], the “CAR T cell proliferation” value [1] is given as “reduced CAR T cell proliferation”, the absolute bioavailability [2] is given as 18±5% and the “CAR T cytotoxicity” value [3] is given as “reduced CAR T cytotoxicity”. For the same molecule, the “CAR T cytotoxicity” value ([3]; listed as Tacrolimus) was “Reduces CAR T Cytotoxicity in a Dose-Dependent Manner”.
